{"source": "patent US8470859B2", "about": "“Iminopyridine derivative and use thereof” (Takeda Pharmaceutical Company Limited, priority 2006, dated 2013)", "key": {"[1]": {"tested_on": "isolated bladder muscle of BOO model rat", "experiment": "Effect of various drugs on α1 receptor stimulation-induced contraction of isolated bladder muscle of bladder outlet obstruction (BOO) model rat", "details": "phenylephrine 3 μmol/L", "method": "Effect of Various Drugs on α1 Receptor Stimulation-Induced Contraction of Isolated Bladder Muscle of Bladder Outlet Obstruction (BOO) Model Rat\n(§1) • (i) Seven-week-old male Wistar rats (CLEA Japan, Inc., Tokyo) were used. BOO rat was prepared according to publications (Hashimoto T, Nagabukuro H and Doi T: Effects of the selective acetylcholinesterase inhibitor TAK-802 on the voiding behavior and bladder mass increase in rats with partial bladder outlet obstruction. J Urol. 174: 1137-41., 2005.). After pentobarbital (50 mg/kg i.p., Dainippon Sumitomo Pharma Co., Ltd., Osaka) anesthesia, a lower middle abdominal incision was made to expose the bladder. The prostate was detached, the urethra was ligated along with a glass rod having an outer diameter of 1.2 mm, and the glass rod was removed to prepare partial obstruction of the urethra. After the surgery, the abdomen was sutured, and penicillin (2000 IU/rat, penicillin G potassium, MEIJI SEIKA KAISHA, LTD., Tokyo) was subcutaneously administered. An animal after 2 to 4 weeks from obstruction surgery was used. • (ii) Contractile Responses of Isolated Bladder Muscle (1) Preparation of Bladder Muscle Specimen\nBOO model rat was sacrificed by decaptation, and the bladder was isolated. Muscle strips (length 7-10 mm, width about 3 mm) in the longitudinal direction were prepared from the bladder except bladder trigone (4-6 specimen from each bladder).\n(§2) The prepared bladder muscle specimens were hung in a Magnus bath aerated with 95% O2-5% CO2 gas and filled with modified Krebs solution. The contraction tension was measured by an isometric strain transducer (TSD125C, Biopac systems, Santa Barbara, Calif., USA) and recorded in the hard disc of PC (ThinkCentre, IBM, USA) via an amplifier (DA100C, Biopac systems) and a multichannel data analysis apparatus (MP100A-CE, Biopac systems). For uptaking the data, a dedicated software (Acqknowledge 3.8.1., Biopac systems) was used and the sampling interval was set to 0.2 second (5 Hz). The specimens were hung with a load of about 1 g and, after an equilibration time of 1 hr or longer, the following experiment was performed.\nThe specimens were treated with phenylephrine (3 μmol/L) to induce contraction. After the contractile response was stabilized (>20 min), the specimens were cumulatively treated 3 times with a drug at a 10-fold common ratio and 30 min intervals, and the variation in the tension was observed.\nThe variation in the tension due to α1 receptor stimulation was evaluated by the two methods shown below [average method and standard deviation (Stddev) method].\nThe average tension for one minute was measured immediately before phenylephrine treatment and after the contraction was stabilized after the treatment (immediately before completion of about 20 min observation time), and the difference was taken as 100%. The average tension for one minute was measured immediately before completion of observation time (30 min) after treatment with a drug at each concentration, and the inhibition rate of the drug at each concentration was calculated. In the vehicle treatment group, the variation rate of phenylephrine-induced contraction was calculated every time the specimens were treated 3 times with lo the solvent, and the inhibition rate of the drug at each concentration was adjusted based on the variation rate of the corresponding vehicle treatment group. The concentration (IC50) necessary for inhibiting the average tension by 50% by preclinical package (SAS Institute Japan, Ver. 5.0) was calculated based on the inhibition rate at each concentration.\nThe standard deviation was measured immediately before phenylephrine treatment and for 5 min after the contraction was stabilized after treatment (immediately before completion of the about 20 min observation time) and the difference was taken as 100%. […]"}, "[2]": {"tested_on": "isolated bladder muscle of BOO model rat", "experiment": "Effect of SNAP-8719 on α1 receptor stimulation-induced contraction of isolated bladder muscle of bladder outlet obstruction (BOO) model rat", "details": "phenylephrine 3 μmol/L, average value ± standard error, N=5-8", "method": "Effect of SNAP-8719 on α1 Receptor Stimulation-Induced Contraction of Isolated Bladder Muscle of Bladder Outlet Obstruction (BOO) Model Rat\nas §1\nBOO model rat was sacrificed by decaptation, and the bladder was isolated. Muscle strips (length 7-10 mm in the longitudinal direction, width about 3 mm) were prepared from the bladder except bladder trigone (4-6 specimen from each bladder).\nas §2\nThe specimens were treated with phenylephrine (3 μmol/L) to induce contraction.\nThe standard deviation was measured for 5 minutes immediately before phenylephrine treatment and for 5 minutes after the contraction was stabilized after treatment (immediately before completion of the about 20 min observation time) and the difference was taken as 100%. The standard deviation was measured for 5 minutes immediately before completion of observation time (30 min) after the SNAP-8719 treatment, and the inhibition rate was calculated. In the vehicle treatment group, the variation rate of phenylephrine-induced contraction was calculated every time the specimens were repeatedly treated with the vehicle, and the inhibition rate of SNAP-8719 was adjusted based on the variation rate of the corresponding vehicle treatment group. • (iii) Action of SNAP-8719 on α1 Receptor Stimulation-Induced Contraction of Isolated Bladder Muscle of BOO Model Rat\nAfter the phenylephrine-induced contraction was stabilized, the specimens were treated with the vehicle 0-4 times at 30 min intervals, treated with SNAP-8719 (1 μmol/L), and the variation in the contraction tension in 30 min was observed. […] Therefore, the evaluation by cumulative treatment with a drug was performed for up to 3 concentrations at 30 min intervals."}}, "note": "pIC50: −log10 of the molar value."}
{"smiles": "C[C@H](CN1CCN(c2cc(F)c(F)cc2F)CC1)N1C(=O)CC2(CCCC2)CC1=O", "note": "[SNAP-8719]", "values": [{"measurement": "effect on the rhythmic contractile response induced by phenylephrine (average method and Stddev method), in words", "setting": "[1]", "value": "inhibited"}, {"measurement": "pIC50", "setting": "[1]; concentration inhibiting the average tension by 50%, cumulative treatment, 3 concentrations, 30 min intervals, read-out: Inhibitory effect on phenylephrine-induced contraction IC50 (average method)", "value": 6.44}, {"measurement": "Inhibitory effect on phenylephrine-induced contraction IC30 (stddev method)", "setting": "[1]; concentration inhibiting the sustained, rhythmic contractile responses by 30%, cumulative treatment, 3 concentrations, 30 min intervals", "value": 180, "unit": "nM"}, {"measurement": "inhibition rate of phenylephrine-induced contraction (standard deviation method, vehicle adjusted value)", "setting": "[2]; SNAP-8719 1 μmol/L after treatment with vehicle 0 times", "value": "51.2±12.4", "unit": "%"}, {"measurement": "inhibition rate of phenylephrine-induced contraction (standard deviation method, vehicle adjusted value)", "setting": "[2]; SNAP-8719 1 μmol/L after treatment with vehicle 1 time at 30 min intervals", "value": "47.4±9.1", "unit": "%"}, {"measurement": "inhibition rate of phenylephrine-induced contraction (standard deviation method, vehicle adjusted value)", "setting": "[2]; SNAP-8719 1 μmol/L after treatment with vehicle 2 times at 30 min intervals", "value": "66.6±8.7", "unit": "%"}, {"measurement": "inhibition rate of phenylephrine-induced contraction (standard deviation method, vehicle adjusted value)", "setting": "[2]; SNAP-8719 1 μmol/L after treatment with vehicle 3 times at 30 min intervals", "value": "36.3±9.4", "unit": "%"}, {"measurement": "inhibition rate of phenylephrine-induced contraction (standard deviation method, vehicle adjusted value)", "setting": "[2]; SNAP-8719 1 μmol/L after treatment with vehicle 4 times at 30 min intervals", "value": "8.7±32.3", "unit": "%"}]}
